Test results: ChEMBL document CHEMBL1914332, “Marine diterpene glycosides” (Bioorg Med Chem, 2011)

Test system: MCF7
Assay: Antimitotic activity in human MCF7 cells assessed as mitotic arrest after 16 to 20 hrs by ELISA method
Format: functional, cell-based

Row | IC50 [nM] | Compound
1 | 20 | CC(=O)O[C@@H]1[C@H](OC/C2=C/[C@@H]3[C@@H](C(C)C)CC=C(C)[C@@H]3C[C@H](OC(=O)/C=C/c3cn(C)cn3)[C@]3(C)C=C[C@@]2(OCCO)O3)OC[C@@H](O)[C@H]1O
2 | 300 | CO[C@]12C=C[C@](C)(O1)[C@@H](OC(=O)/C=C/c1cn(C)cn1)C[C@@H]1[C@H](/C=C\2CO[C@@H]2OC[C@@H](O)[C@@H](O)[C@@H]2OC(C)=O)[C@@H](C(C)C)C[C@H]2O[C@@]12C
3 | 50 | CO[C@]12C=C[C@](C)(O1)[C@@H](OC(=O)/C=C/c1cn(C)cn1)C[C@H]1C(C)=CC[C@H](C(C)C)[C@H]1/C=C\2CO[C@@H]1OC[C@@H](O)[C@@H](OC(C)=O)[C@@H]1O [ISOELEUTHEROBIN A]
4 | 80 | CC(=O)O[C@@H]1[C@H](OC/C2=C/[C@@H]3[C@@H](C(C)C)CC=C(C)[C@@H]3C[C@H](OC(=O)/C=C/c3cn(C)cn3)[C@]3(C)C=C[C@@]2(OCC(C)(C)CO)O3)OC[C@@H](O)[C@H]1O
5 | 20000 | CO[C@]12C=C[C@](C)(O1)[C@@H](OC(=O)CCc1cn(C)cn1)C[C@H]1C(C)=CC[C@H](C(C)C)[C@H]1/C=C\2CO[C@@H]1OC[C@@H](O)[C@@H](O)[C@@H]1OC(C)=O

Continued, compound first:

Row | Compound | IC50 [nM]
6 | CO[C@]12CC[C@](C)(O1)[C@@H](OC(=O)CCc1cn(C)cn1)C[C@@H]1[C@H](/C=C\2CO[C@@H]2OC[C@@H](O)[C@@H](O)[C@@H]2OC(C)=O)[C@@H](C(C)C)CC[C@@H]1C | > 10000
7 | CO[C@]12C=C[C@](C)(O1)[C@@H](OC(=O)/C=C/c1cn(C)cn1)C[C@@H]1[C@H](/C=C\2CO[C@@H]2OC[C@@H](O)[C@@H](O)[C@@H]2OC(C)=O)[C@@H](C(C)C)C[C@@H]2O[C@@]21C | 30
8 | CO[C@]12C=C[C@](C)(O1)[C@@H](OC(=O)/C=C/c1cn(C)cn1)C[C@@H]1[C@H](/C=C\2CO[C@@H]2OC[C@@H](O)[C@@H](O)[C@@H]2OC(C)=O)[C@@H](C(C)C)C=C[C@@]1(C)O [CARIBAEOSIDE] | 20000
9 | CCO[C@]12C=C[C@](C)(O1)[C@@H](OC(=O)/C=C/c1cn(C)cn1)C[C@H]1C(CO)=CC[C@H](C(C)C)[C@H]1/C=C\2CO[C@@H]1OC[C@@H](O)[C@@H](O)[C@@H]1OC(C)=O | 20
10 | CO[C@]12CC[C@](C)(O1)[C@@H](OC(=O)/C=C/c1cn(C)cn1)C[C@@H]1[C@H](/C=C\2CO[C@@H]2OC[C@@H](O)[C@@H](O)[C@@H]2OC(C)=O)[C@@H](C(C)C)CC[C@@H]1C [TETRAHYDROELEUTHEROBIN] | 200
11 | CO[C@]12C=C[C@](C)(O1)[C@@H](OC(=O)/C=C/c1cn(C)cn1)C[C@H]1C(C)=CC[C@H](C(C)C)[C@H]1/C=C\2CO[C@@H]1OC[C@@H](O)[C@@H](O)[C@@H]1OC(C)=O [ELEUTHEROBIN] | 100
12 | CC(=O)O[C@@H]1[C@H](OC/C2=C/[C@@H]3[C@@H](C(C)C)CC=C(C)[C@@H]3C[C@H](OC(=O)/C=C/c3cn(C)cn3)[C@]3(C)C=C[C@@]2(O)O3)OC[C@@H](O)[C@H]1O [DESMETHYLELEUTHEROBIN] | 20
